Measurements from publication PMC4912218, “Targeted metabolomics of Gammarus pulex following controlled exposures to selected pharmaceuticals in water” (The Science of the Total Environment, 2016).

Experiments:
Thamnocephalus platyurus = conditions: ref Kim et al., 2009; cited from earlier work
[1] = set-up: method as in Drugbank; conditions: 20 °C; ref Drugbank; cited from earlier work
[2] = Internal pharmaceutical residue concentration in exposed G. pulex (SPE, LC-MS/MS); conditions: C1 dose, 24 h
Procedure: Quantification of pharmaceutical concentrations in G. pulex at the 24 h exposure interval was performed. Separate exposures were set up in triplicate in beakers containing 200 mL of exposure solution (AFW spiked with the respective C1 pharmaceutical dose) and 20 organisms. At 24 h, animals were immediately rinsed with ultra-pure water and then frozen at − 20 °C for 24 h. […] Prior to extraction, frozen G. pulex samples were lyophilised at − 50 °C under vacuum for 48 h and milled in an agate mortar to a fine powder. For each analysis, 20 mg of a lyophilised composite sample were transferred to 2 mL polypropylene tubes (Eppendorf®, Hamburg, Germany), for solid-liquid extraction (SLE). […]
Briefly, 50 mg of lyophilised G. pulex were extracted in 5 mL of acetonitrile and pre-concentrated on Oasis HLB SPE cartridges (6 mL, 200 mg sorbent). […] Organic acids, nucleosides, nucleotides, sugars and AAs were measured using LC–HRMS. […]
Here, pharmaceutical residue quantification in exposed G. pulex was performed by a 3-point matrix-matched calibration curve. […] L-ornithine hydrochloride, inosine, thymidine, taurine, 1.7-dimethylxanthine and (−)-riboflavin were quantified using either ^13C,^15N-proline or ^13C,^15N-tyrosine as the internal standard. The remaining 15 compounds were quantified using external calibration and the target compound itself was used as external standard. […]

Oc1cc(Cl)ccc1Oc1ccc(Cl)cc1Cl [Triclosan]
24 h- LC50 T. platyurus (Thamnocephalus platyurus): 0.47 µg/mL | Water solubility [1]: 12000 (20 ºC) mg L^-1 | internal concentration in G. pulex (detection) [2]: not quantifiable
